Measured values published in patent US20240109855A1, “ANTI-QUORUM SENSING, ANTI-BIOFILM, AND INFLAMMATION ATTENUATING COMPOUNDS, COMPOSITIONS, AND METHODS OF USING SAME” (priority 2021, published 2024).
Entries after “also recorded” stand apart in the source; their conditions may differ. Read-outs that look alike come from different tables or passages of the source.

Legend:
[1] = tested on: Chromobacterium violaceum (CV026); test: Quorum sensing inhibition test with bio-reporter CV026 (TLC overlay); assay type: cell-based; conditions: for Degree of QSI of CV026: Table 1, coumaperine derivatives, 40 mM in ~20 μL acetonitrile dried on TLC plate, overnight, color intensity; for QSI activity against CV026, in words: running text; on Degree of QSI of CV026: key: −: no inhibition; +: low inhibition; ++: medium inhibition; +++: strong inhibition; on Degree of quorum sensing inhibition (QSI), CV026: key: −: no inhibition; +: low inhibition; ++: medium inhibition; +++: strong inhibition
Experimental: (§1) TLC preparation: all derivatives were dissolved in 100% acetonitrile to a concentration of 40 mM. Then placed 20 μlon the same spot on the TLC and let the solvent evaporate before use. CV026: few colonies were transferred to liquid LB (Lenox) for overnight incubation at 30° C. in a 45 degree in orbital shaker. At the O.D. 0.8 3 ml of the starter was added to preheated soft LB agar containing 500 nM of 3-oxo-C6 (Sigma-Aldrich). The mixture was then loaded on the TLC in a glass plate for O.N. incubation in 30° C. The next day inhibition zone was measured, while QS is taking place bacteria produce purple pigment, and when QS is inhibited no pigment is produced. KYC55 (pJZ372) (pJZ384) (pJZ410): 20 μl from the frozen stock into 25 ml AT media (AT buffer×20: 1.57 M KH2PO4 pH=7.3. AT salts mix×20: 300 mM (NH4)2SO4, 13 mM MgSO4, 1.4 mM CaCl2, 0.4 mM FeSO4·7H2O, 0.26 mM MnSO4·H2O. AT media: 50 ml×20 AT-buffer, 50 ml×20 AT-salts, 10 ml 50% (w/v) glucose, add 890 ml to final volume of 1 liter.) For O.N. at 30° C. in an orbital shaker. Into preheated water agar with 25 ml AT-buffer, and 60 μg/ml X-gal and 5 nM 3-oxo-c8 (both from Sigma-Aldrich) 25 ml of the starter was added. Then, that mixture was loaded on the TLC in glass plate for O.N. incubation in 30° C. The next day the inhibition zone was measured. The bacteria produce blue pigment during QS and when QS is inhibited no pigment is produced. KYC55 (pJZ372) (pJZ384) (pJZ410) preservation in tetracycline (1 μg/ml), spectinomycin (100 μg/ml), gentamicin (100 μg/ml) (all antibiotics from Sigma Aldrich) in AT media O.N. then centrifuged and suspend in 15% glycerol frozen and maintained at −80° C.

[2] = tested on: Agrobacterium tumefaciens (KYC55); test: Quorum sensing inhibition test with bio-reporter KYC55 (TLC overlay); assay type: cell-based; conditions: for Degree of QSI of KYC55: Table 1, coumaperine derivatives, 40 mM in ~20 μL acetonitrile dried on TLC plate, overnight, color intensity; for QSI activity against KYC55, in words: running text; on Degree of QSI of KYC55: key: −: no inhibition; +: low inhibition; ++: medium inhibition; +++: strong inhibition; on Degree of quorum sensing inhibition (QSI), KYC55: key: −: no inhibition; +: low inhibition; ++: medium inhibition; +++: strong inhibition
Experimental: as §1

[3] = tested on: quorum sensing (CV026 and KYC55); test: Quorum sensing inhibition, overall statement over the bio-reporter bacteria; assay type: cell-based; conditions: for QSI: Table 6 summary; for QSI activity overall, in words: running text
Experimental: as §1
All the synthesized compounds were evaluated for quorum sensing inhibition against two bioreporter bacteria strains, Chromobacterium violaceum (CV026) and Agrobacterium tumefaciens (KYC55) and the results are summarized in Table 1.

Bacillus subtilis = test: Diffusion discs test, Bacillus subtilis; assay type: cell-based; design: key: —: no activity; conditions: discs with 40 mM of compound in 20 μl solvent
Experimental: (§2) All derivatives were dissolved in acetonitrile to a final concentration of 40 mM. Twenty (20) μl were loaded onto Whatman filter paper discs and dried. Bacillus subtilis, Staphylococcus aureus, and Acinetobacter baumannii were grown in LB (Lenox) O.N. One hundred (100) μl from the starter culture was plated on LB agar (Miller) dishes. Streptococcus sobrinus, and Streptococcus mutans grown in Brain Heary Infusion (BHI, Himedia) O.N. were similarly plated on BHI agar dishes. Discs were laid and incubated O.N. in 37° C. and the diameter of inhibition of bacterial growth was measured.

Staphylococcus aureus = test: Diffusion discs test, Staphylococcus aureus; assay type: cell-based; design: key to Staphylococcus aureus, diameter of growth inhibition: —: no activity; conditions: for Staphylococcus aureus, diameter of growth inhibition: discs with 40 mM of compound in 20 μl solvent
Experimental: as §2

Streptococcus sobrinus = test: Diffusion discs test, Streptococcus sobrinus; assay type: cell-based; design: key: —: no activity; conditions: discs with 40 mM of compound in 20 μl solvent
Experimental: as §2

Streptococcus mutans = test: Diffusion discs test, Streptococcus mutans; assay type: cell-based; design: key: —: no activity; conditions: discs with 40 mM of compound in 20 μl solvent
Experimental: as §2

PA01 = test: Diffusion discs test, PA01; assay type: cell-based, P. aeruginosa; design: key: —: no activity; conditions: discs with 40 mM of compound in 20 μl solvent
Acinetobacter baumannii = test: Diffusion discs test, Acinetobacter baumannii; assay type: cell-based; design: key: —: no activity; conditions: discs with 40 mM of compound in 20 μl solvent
Experimental: as §2

[4] = tested on: gram-positive and gram-negative bacteria; test: Antibacterial activity, overall statement (diffusion discs test); assay type: cell-based; conditions: for Antibacterial: Table 6 summary; for Antibacterial activity, in words: running text
Experimental: as §2
The antibacterial activities of derivatives showing QSI are outlined in Table 4. […] Similar to that idea, synthetic derivatives of furanon (product of marine algae) shown in-vivo QSI activity without antibacterial activity followed by immune response of the infected animal. Phenolic compounds decrease QS and virulence in PA01 and Chromobacterium violaceum. There is increasing number of studies, searching for compounds that targeting non-vital processes to combat bacteria.

NF-kB = test: NF-kB-luciferase reporter gene assay in L428 cells; assay type: cell-based, human; conditions: Table 6 summary; further: key: +: active; −: inactive
Experimental: FIG. 7 includes a vertical bar graph showing a dose response of NF-kB activation according to an NF-kB reporter gene luciferase assay. L428 cells were stably transfected with the NF-kB luciferase reporter gene. The cells were incubated with the compounds at different concentrations for 2 hours. […] The results represent the percentage of NF-kB activation as compared to vehicle (DMSO) treated cells. All samples were normalized to protein concentration. Mean+SD, Two-way ANOVA and Tukey's multiple comparison test. 95% confidence interval (p-values *≤0.0332, **≤0.0021, ***≤0.0002).
L428 cells stable transfectants with the luciferase NF-kB-Luc reporter gene were generated previously described (Ozer et al., 2009), and were maintained in 500 μg/ml of G418 (G418 disulfate salt, Sigma-Aldrich). The cells (5×10^5 /well in triplicate) were incubated for 2 hrs. in 1 ml of medium containing the solvent (DMSO) or different concentrations of the molecules tested. Cells were then harvested, lysed, and monitored by a luciferase reporter assay kit (Promega) according to the manufacturer's instructions. Measurements were carried out using a luminometer (Promega, GLOMAX™ 20/20 Luminometer). Data were normalized to the protein concentration in each lysate as measured by the Bradford method (BioRad) and normalized to the control. Experiments were repeated at least three times.

in vitro = conditions: human, LC50
Experimental: (§3) The human Hodgkin's Lymphoma derived L428 cell line was used as a model. The cells were grown in RPMI Medium 1640 with 10% FBS, 1% Glutamine and pen-strep (all from Biological Industries, Israel). […] Thirty thousand (30,000) cells/well were placed in 96-well plates with the coumaperine derivatives at different concentrations or with vehicle (DMSO) at a final volume of 200 μl. The plates were incubated for 48 hrs. at 37° C. and 5% CO2 followed by the addition of 50 μl of the XTT reagent tetrazolium-formazan, (Biological Industries, Israel) was added for 2 hrs. at 37° C., 5% CO2. In living cells, mitochondria […] the tetrazolium-formazan salt, thereby generating a color absorbing product at 450 nm. Absorbance was measured at 450 nm and 650 nm in an enzyme-linked immunosorbent assay (ELISA) plate reader (Multiskan Spectrum, Version 1.2), and recorded. Absorption values at 650 nm were subtracted from the blank and the 450 nm values. The results were normalized to the control (treated with DMSO).
(§4) Viability was determined in triplicate in two independent tests. The results were normalized to vehicle (DMSO) treated cells, (100% viability). Mean+SD.

L428 cells [5] = test: in vitro
Experimental: as §3, §4

L428 cells [6] = conditions: cited from earlier work
[7] = Table 2, piperlongumine derivatives

| SMILES | Degree of QSI of CV026 [1] | QSI activity against CV026, in words [1] | Degree of QSI of KYC55 [2] | QSI activity against KYC55, in words [2] | QSI [3] | QSI activity overall, in words [3] | Bacillus subtilis, diameter of growth inhibition (Bacillus subtilis) | Staphylococcus aureus, diameter of growth inhibition (Staphylococcus aureus) | Streptococcus sobrinus, diameter of growth inhibition (Streptococcus sobrinus) | Streptococcus mutans, diameter of growth inhibition (Streptococcus mutans) | PA01, diameter of growth inhibition (PA01) | Acinetobacter baumannii, diameter of growth inhibition (Acinetobacter baumannii) | Antibacterial [4] | Antibacterial activity, in words [4] | Anti-inflammatory (NF-kB) | CC50 at 48 h (in vitro) | Cytotoxic (L428 cells [5]) | also measured |
| --- | --- | --- | --- | --- | --- | --- | --- | --- | --- | --- | --- | --- | --- | --- | --- | --- | --- | --- |
| O=C(/C=C/C=C/c1ccccc1)N1CCCCC1 [CP-9, (2E,4E)-5-phenyl-1-(piperidin-1-yl)penta-2,4-dien-1-one] | ++ | moderate | + | low | + | anti QS activity | 8 mm | 9 mm | 9 mm | — | — | — | + | showed antibacterial activity; also recorded: inhibit bacterial growth of the three gram-positive bacteria; also recorded: some antibiotic activity | + | 24.7 µM | + | CC50 (L428 cells [5]; human, 48 h): 24.7 µM; Cytotoxicity, previously reported (L428 cells [6]): cytotoxic |
| CSc1ccc(/C=C/C=C/C(=O)N2CCCCC2)cc1 [CP-147, (2E,4E)-5-(4-(methylthio)phenyl)-1-(piperidin-1-yl)penta-2,4-dien-1-one] | + | low activity; also recorded: low QS inhibition effect | − | inactivity; also recorded: does not affect QS |  |  | — | 9 mm | — | — | — | — |  | showed antibacterial activity |  |  |  | Staphylococcus aureus growth inhibition, in words (Staphylococcus aureus; running text): inhibits Staphylococcus aureus growth |
| O=C(/C=C/C=C/c1ccc(F)cc1)N1CCCCC1 [CP-154, (2E,4E)-5-(4-fluorophenyl)-1-(piperidin-1-yl)penta-2,4-dien-1-one] | +++ | highly active | +++ | highly active | + | anti QS activity | 7 mm | 11 mm | 9 mm | — | — | — | + | showed antibacterial activity | + | 46.8 µM | + | Cytotoxic activity, in words (L428 cells [5]): cytotoxic |
| O=C(/C=C/C(=O)N1CCCCC1)c1ccc(F)c(F)c1 [CP-287, (E)-3-(benzoyl 3,4-difluoro)-1-(piperidin-1-yl)prop-2-en-1-one] |  |  |  |  | + |  | — | — | 9 mm | — | — | — | − | showed antibacterial activity | + |  | + | CC50 (L428 cells [5]; read-out: LC50, L428 cells, 48 hrs): 284 µM; CC50 (L428 cells [5]; read-out: LC50, Table 5, L428 cells, 48 hrs): 284 µM |
| O=C(/C=C/C1CCCCC1)N1CCCCC1 [CP-295, (E)-cyclohexyl-1-(piperidin-1-yl)prop-2-en-1-one] | ++ | moderate activity | ++ | moderate activity |  |  | — | — | 12 mm | — | — | — |  | showed antibacterial activity |  | 408 µM |  |  |
| O=C1C=CCCN1C(=O)/C=C/c1cc(O)c(O)c(O)c1 [PL-25, trihydroxy piperlongumine] |  | inactive |  | moderate inhibition |  |  | — | 9 mm | — | — | — | — |  | showed antibacterial activity |  | 46.3 µM |  | Degree of quorum sensing inhibition (QSI), CV026 [1, 7]: −; Degree of quorum sensing inhibition (QSI), KYC55 [2, 7]: ++ |
